Test results from ChEMBL document CHEMBL3853335, “Citrinovirin with a new norditerpene skeleton from the marine algicolous fungus Trichoderma citrinoviride” (Bioorg Med Chem Lett, 2016).
Values after ≈ are worked out from the molar mass of the structure shown.

Assays:
Scrippsiella trochoidea = assay: Growth inhibition of Scrippsiella trochoidea at 100 ug/ml after 12 hrs by light microscopy; type: functional
[1] = Toxicity in Artemia salina assessed as lethality after 24 hrs
Prorocentrum donghaiense = assay: Growth inhibition of Prorocentrum donghaiense at 100 ug/ml after 12 hrs by light microscopy; type: functional
Chattonella marina = assay: Growth inhibition of Chattonella marina at 100 ug/ml after 12 hrs by light microscopy; type: functional
Heterosigma akashiwo = assay: Growth inhibition of Heterosigma akashiwo at 100 ug/ml after 12 hrs by light microscopy; type: functional
Staphylococcus aureus = assay: Antimicrobial activity against Staphylococcus aureus after 24 hrs by agar diffusion method; type: functional
[2] = test system: Colletotrichum gloeosporioides; assay: Antimicrobial activity against Colletotrichum gloeosporioides after 24 hrs by agar diffusion method; type: functional
Colletotrichum lagenaria = assay: Antimicrobial activity against Colletotrichum lagenarium after 24 hrs by agar diffusion method; type: functional
Escherichia coli = assay: Antimicrobial activity against Escherichia coli after 24 hrs by agar diffusion method; type: functional

Molecule	growth inhibition (GI) (Scrippsiella trochoidea) [%]	growth inhibition (GI) (Prorocentrum donghaiense) [%]	growth inhibition (GI) (Chattonella marina) [%]	MIC (Staphylococcus aureus) [µg/mL]	further results
CCCC[C@@H](C)[C@@H]1[C@@H]2C=C[C@H]3[C@H](C)[C@@H](O)[C@@H](O)[C@@H]3[C@]1(C)OC2=O	-47.2	14.1	37.2	12.4 (≈ 38.5 µM)	LC50 at 24 h [1]: 65.6 µg/mL (≈ 203 µM); inhibition of growth at 100 µg/mL (Heterosigma akashiwo; read-out: GI): 23.4%
C[C@@H]1[C@H](O)[C@@H](C)/C=C/C=C/C=C/C=C/C=C/C=C/C=C/[C@H](O[C@@H]2O[C@H](C)[C@@H](O)[C@H](N)[C@@H]2O)C[C@@H]2O[C@](O)(C[C@@H](O)C[C@@H](O)[C@H](O)CC[C@@H](O)C[C@@H](O)CC(=O)O[C@H]1C)C[C@H](O)[C@H]2C(=O)O [AMPHOTERICIN B]					MIC [2]: 12.4 µg/mL (≈ 13.4 µM); MIC (Colletotrichum lagenaria): 12.4 µg/mL (≈ 13.4 µM)
O=C(N[C@H](CO)[C@H](O)c1ccc([N+](=O)[O-])cc1)C(Cl)Cl [CHLORAMPHENICOL]				0.8 (≈ 2.48 µM)	MIC (Escherichia coli): 1.6 µg/mL (≈ 4.95 µM)
POTASSIUM DICHROMATE [listing 1 of 2 here]					LC50 ([1]; 24 h): 20.8 µg/mL
POTASSIUM DICHROMATE [listing 2 of 2 here]	71.9	71.7	74.4		growth inhibition (GI) (Heterosigma akashiwo): 78.4%
